In patent US20060122267A1, “Compositions and methods for attenuating mitochondria-mediated cell injury” (priority 2003, published 2006):
“Also recorded” adds a separate entry of the source.

What was measured:
[1] = system: mitochondrial proteins; assay: Biotin-switch analysis of mitochondrial protein S-nitrosation; assay type: biochemical, rat; details: for S-nitrosation of entire mitochondrial protein extract, comparison of NO donors: S-nitrosoglutathione 1 mM, DETA-NONOate 2 mM, ONOO- 3 additions of 100 μM, 37° C., 40 minutes
Procedure: Rat heart mitochondria were isolated using differential centrifugation (Tompkins, et al. (2005) Biochim. Biophys. Acta PMID: 16278076). Protein was determined by the Folin-phenol method (Lowry, et al. (1951) J. Bio. Chem. 193:265-75) against a standard curve constructed using bovine serum albumin. Mitochondrial incubations and all subsequent steps were performed in the dark. One mg of mitochondrial protein was suspended in 1 mL of mitochondrial respiration buffer (Tompkins, et al. (2005) supra) containing respiratory substrates glutamate (5 mM), malate (2.5 mM) and succinate (5 mM). […] Samples were centrifuged (5 minutes, 14,000×g), and supernatants removed. The pellets were then resuspended in 1 mL of respiration buffer, and centrifuged again. Pellets were frozen in liquid N2 for subsequent analysis. For ONOO^− treatments, 4 μL of 25 mM ONOO^− stock (100 μM final concentration) was added the cap of the reaction tube, the cap quickly closed and the tube shaken immediately. The process was then repeated twice at 30 second intervals, for a total of 3 additions. Mitochondria were then pelleted, washed, and frozen as for S-nitrosoglutathione samples. Complex I activity was assayed as the rotenone-sensitive oxidation of NADH, at 340 nm in the presence of coenzyme Q1 (Borutaite, et al. (2000) supra). Complex IV was assayed by monitoring the cyanide-sensitive first-order oxidation of reduced cytochrome c, at 550 nm according to established methods (Cleeter, et al. (1994) supra).
For biotin-switch analysis, intact mitochondrial pellets (1 mg protein solubilized in extraction buffer) or chromatography column fractions were analyzed in accordance with known methods (Jaffrey & Snyder (2001) supra). Samples were separated in duplicate on non-reducing SDS-PAGE gels; half the gel was stained with COOMASSIE® blue, and the other half blotted and probed with streptavidin-HRP and ECL™ detection (GE biosciences). Blots and stained gels were aligned, and S-nitrosated proteins excised, trypsinized, and identified by peptide mass fingerprinting. Mass spectra (MALDI-TOF) were analyzed using the MASCOT™ algorithm available on the world-wide web at matrixscience.com.

[2] = system: perfused rat hearts; assay: Langendorff isolated perfused rat heart model of ischemia-reperfusion injury; details: 10 μM infused during equilibration; 25 minutes global ischemia, 30 minutes reperfusion; dark
Procedure: Hearts were perfused in constant flow mode, with Krebs-Henseleit (KH) buffer, gassed with 95/5 O2/CO2. Following equilibration (during which S-nitroso-2-mercaptopropylglycine was infused at 10 μM final concentration), global ischemia was imposed for 25 minutes, followed by 30 minutes of reperfusion. Cardiac functional parameters were measured throughout, with a left-ventricular balloon attached to a pressure transducer. Recovery of rate pressure product (RPP, i.e., left ventricular developed pressure multiplied by heart rate) was greater in S-nitroso-2-mercaptopropylglycine treated hearts. Control hearts in these experiments were subject to dark conditions.
Rat hearts were perfused according to methods well-known in the art (Digerness, et al. (2003) J. Thorac. Cardiovasc. Surg. 125:863-871), with Krebs-Henseleit (KH) buffer, gassed with 95/5 O2/CO2. […] Cardiac functional parameters (left ventricular pressure, rate pressure product, oxygen consumption, diastolic stiffness, etc.) were measured throughout, and mitochondria were isolated at the end of the procedure. Several mitochondrial parameters are then determined including respiration, Ca^2+ loading capacity, reactive oxygen species generation, permeability transition pore opening threshold, respiratory complex activities (Brookes, et al. (2002) Methods Enzymol. 359:305-319), and protein S-nitrosation as disclosed herein.

[3] = system: isolated adult rat cardiomyocytes; assay: Mitochondrial H+ leak in cardiomyocytes (respiration divided by TMRE fluorescence) after ischemia-reperfusion; assay type: cell-based; details: doses that protect cardiomyocyte viability
Procedure: Cardiomyocyte respiration rate was measured with an oxygen electrode, and membrane potential with the fluorescent dye TMRE (20 nM) in a fluorimeter. H^+ leak is essentially the amount of work the respiratory chain must do to maintain a given membrane potential, and experimentally is derived by dividing respiration by TMRE fluoresence. […] All data are means±SEM, N>3.
Adult rat cardiomyocytes were prepared by collagenase perfusion according to standard methods (Dai, et al. (2001) supra), yielding ˜4×10^6 cells per heart, >80% rod-shaped and viable. Incubations were in a shaking water bath at 37° C., each utilizing 5×10^5 cells in 5 mL of the KH buffers described below. For the control, cells were incubated for 2 hours in oxygenated KH buffer (95/5 O2/CO2). For ischemia-reperfusion treatment, cells were subjected to 30 minutes in oxygenated KH buffer, 1 hour in “ischemic” KH buffer (95/5 N2/CO2, pH 6.5, no glucose), and 30 minutes in oxygenated KH buffer. […] At the end of each protocol, cell viability was assayed (Trypan blue), and mitochondrial function determined (measurement of ΔΨm with the fluorescent probe TMRE, respiration with an O2 electrode, and S-nitrosothiol content by chemiluminescence and biotin-switch.

[4] = system: isolated adult rat cardiomyocytes; assay: Cardiomyocyte model of ischemia-reperfusion injury, cell viability by Trypan blue exclusion; assay type: cell-based
Procedure: Isolated adult rat cardiomyocytes were subjected to 1 hour ischemia (anoxic, glucose free medium, pH 6.5) followed by 30 minutes reoxygenation (labeled “HR”). Cell viability was assayed by Trypan blue exclusion. […] All data are means±SEM, N>3.
Adult rat cardiomyocytes were prepared by collagenase perfusion according to standard methods (Dai, et al. (2001) supra), yielding ˜4×10^6 cells per heart, >80% rod-shaped and viable. Incubations were in a shaking water bath at 37° C., each utilizing 5×10^5 cells in 5 mL of the KH buffers described below. For the control, cells were incubated for 2 hours in oxygenated KH buffer (95/5 O2/CO2). For ischemia-reperfusion treatment, cells were subjected to 30 minutes in oxygenated KH buffer, 1 hour in “ischemic” KH buffer (95/5 N2/CO2, pH 6.5, no glucose), and 30 minutes in oxygenated KH buffer. For the ischemia-reperfusion injury and test compound group of cells, ischemia-reperfusion injury was carried out as described above with test compound present during the 30 minute equilibration prior to ischemia-reperfusion and absent during ischemia. […] At the end of each protocol, cell viability was assayed (Trypan blue), and mitochondrial function determined (measurement of ΔΨm with the fluorescent probe TMRE, respiration with an O2 electrode, and S-nitrosothiol content by chemiluminescence and biotin-switch.

[5] = cited from earlier work
[6] = system: cell and organ models of ischemia-reperfusion; details: cited from earlier work

SMILES: NCCN(CCN)/[N+]([O-])=N/O [DETA-NONOate]
- S-nitrosation of entire mitochondrial protein extract, comparison of NO donors [1]: S-nitrosoglutathione resulted in far more S-nitrosation than DETA-NONOate or ONOO^−

SMILES: CC(SN=O)C(=O)NCC(=O)O (stereo not shown)
- recovery of rate pressure product (RPP) after ischemia-reperfusion versus control hearts [2]: greater
- S-nitrosation of mitochondrial proteins compared with S-nitrosoglutathione ([1]; same concentrations, 10-100 μM): much greater degree of S-nitrosation of mitochondrial proteins than did S-nitrosoglutathione
- effect on increase in mitochondrial H+ leak induced by ischemia-reperfusion [3]: prevent large increases in H^+ leak; also recorded: protect against the large increase in proton leak
- protection of cardiomyocyte viability from ischemia-reperfusion injury ([4]; 10 μM or 20 μM, 1 hour ischemia, 30 minutes reoxygenation): dose-dependent and significant protection
- protection of cardiomyocyte viability compared with ischemic preconditioning (IPC) ([4]; higher dose, 20 μM): more effective than IPC

SMILES: O=NOO [ONOO^−, peroxynitrite]
- S-nitrosation of entire mitochondrial protein extract, comparison of NO donors [1]: S-nitrosoglutathione resulted in far more S-nitrosation than DETA-NONOate or ONOO^−

SMILES: CC(S)C(=O)NCC(=O)O (stereo not shown) [2-mercaptopropionylglycine, 2-Mercaptopropionylglycine]
- bioavailability ([5]; in vivo): bioavailable
- cellular and mitochondrial distribution ([5]; radioactive tracer, whole animals): readily enters cells and accumulates in mitochondria
- concentrations required to elicit protection [6]: 0.3 to 1.0 mM
